{"source": "patent US8450313B2", "about": "“2,3-diaryl- or heteroaryl-substituted 1,1,1-trifluoro-2-hydroxypropyl compounds” (Hoffmann-La Roche Inc., priority 2009, dated 2013)", "target": "T1, full length human recombinant glucocorticoid receptor (Homo sapiens, UniProt P04150)", "T1 construct": "It contains some partially purified full length human recombinant glucocorticoid receptor; purchased Panvera/Invitrogen PV4302", "T1 sequence (P04150 1-777)": "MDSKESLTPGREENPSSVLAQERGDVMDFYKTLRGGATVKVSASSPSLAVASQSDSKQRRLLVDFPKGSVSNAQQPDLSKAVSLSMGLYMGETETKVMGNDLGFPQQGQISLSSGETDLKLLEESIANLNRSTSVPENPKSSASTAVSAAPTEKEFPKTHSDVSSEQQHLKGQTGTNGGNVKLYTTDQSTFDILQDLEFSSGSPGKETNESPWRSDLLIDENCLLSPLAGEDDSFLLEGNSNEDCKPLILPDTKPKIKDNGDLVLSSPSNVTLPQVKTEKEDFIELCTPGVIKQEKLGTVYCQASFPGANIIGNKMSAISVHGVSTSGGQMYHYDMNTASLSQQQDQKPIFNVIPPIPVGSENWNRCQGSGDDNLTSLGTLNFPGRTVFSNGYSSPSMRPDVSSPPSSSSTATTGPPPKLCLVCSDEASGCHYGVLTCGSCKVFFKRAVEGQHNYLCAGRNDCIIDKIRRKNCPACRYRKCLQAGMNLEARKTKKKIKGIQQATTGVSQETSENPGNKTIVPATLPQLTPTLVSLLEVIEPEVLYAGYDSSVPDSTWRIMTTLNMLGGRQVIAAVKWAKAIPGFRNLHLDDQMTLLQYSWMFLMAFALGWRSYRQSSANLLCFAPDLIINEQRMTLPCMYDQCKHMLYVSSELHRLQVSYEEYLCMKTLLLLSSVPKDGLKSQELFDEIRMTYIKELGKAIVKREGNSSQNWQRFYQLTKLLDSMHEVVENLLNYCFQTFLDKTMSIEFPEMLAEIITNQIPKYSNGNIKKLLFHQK", "experiment": "Glucocorticoid Receptor Binding Assay (Glucocorticoid Receptor Competitor Assay far red kit, fluorescence polarization)", "settings": "competition with fluorescent GR ligand Fluormone GS Far Red, 3 hours at 22° C., pH 7.4; Ki calculated from IC50 by Cheng-Prusoff", "experimental": "Glucocorticoid Receptor Binding Assay\nThe ability of the substances to bind to the glucocorticoid receptor was determined with the help of a commercial Glucocorticoid Receptor Competitor Assay far red kit provided by Panvera/Invitrogen (PV4302). This kit is used as provided by the supplier. It contains some partially purified full length human recombinant glucocorticoid receptor, a coactivator related GR stabilizing peptide, a tight-binding fluorescent GR ligand Fluormone™ GS Far Red as labeled tracer and a screening buffer. All reagents are prepared and the assay is run according to the recommendations of the kit manufacturer.\nBriefly, the GR stabilizing peptide and the human recombinant glucocorticoid receptor are both diluted with the screening buffer (pH 7.4) and are gently mixed (no vortexing) just before the assay and kept on ice until use. The fluorescent-labeled ligand is also diluted with the screening buffer just before the assay and kept on ice until use. The substances to test are pre-diluted in pure DMSO then some water is added to get an intermediate 4.2% DMSO stock solution. Ten microliter of the intermediate stock solution is gently mixed with 5 μA of diluted fluorescent-labeled ligand and 5 μl of diluted human recombinant glucocorticoid receptor in a 384-well plate (low volume, ultraclear, glass plate from Greiner ref 788896). The plate is centrifuged, sealed and incubated for 3 hours at 22° C. in the dark. The polarized fluorescence is measured with a Zeiss-HTS reader or any equivalent equipment (610-660 nm).\nAll compounds were tested to determine IC50 in a serial dilution experiment. The concentration at which 50% inhibition of the fluorescent GR ligand Fluormone™ GS Far Red is obtained (the IC50) is determined after fitting with a sigmoidal dose-response model of a plot of the logarithm of the concentration versus percent inhibition measured for the different concentrations. Ki's were calculated from IC50 based on Cheng-Prusoff equation (Cheng, Y, Prusoff, W H (1973) Biochem Pharmacol 22, 3099-3108): Ki=IC50/[1+D/Kd] wherein D is the concentration of the fluorescent ligand and Kd is the binding constant for the fluorescent ligand binding to the receptor under the conditions used in the competition experiment."}
{"compound": "C[C@@H](c1ccc(-c2ccc(CCC(=O)O)cc2)cc1Cl)[C@](O)(c1ccc2c(c1)N(C)C(=O)CO2)C(F)(F)F", "note": "(relative stereo) [Example 29, 3-{3′-Chloro-4′-[3,3,3-trifluoro-2-hydroxy-1-methyl-2-(4-methyl-3-oxo-3,4-dihydro-2H-benzo[1,4]oxazin-6-yl)-propyl]-biphenyl-4-yl}-propionic acid]", "values": [{"measurement": "Ki", "value": 7.5, "unit": "nM"}]}
{"compound": "COC(=O)c1ccc(-c2ccc([C@H](C)[C@](O)(c3ccc4c(c3)N(C)C(=O)CO4)C(F)(F)F)c(Cl)c2)cc1Cl", "note": "(relative stereo) [Example 30, 3,3′-Dichloro-4′-[3,3,3-trifluoro-2-hydroxy-1-methyl-2-(4-methyl-3-oxo-3,4-dihydro-2H-benzo[1,4]oxazin-6-yl)-propyl]-biphenyl-4-carboxylic acid methyl ester]", "values": [{"measurement": "Ki", "value": 2, "unit": "nM"}]}
{"compound": "C[C@@H](c1ccc(-c2ccc(C(=O)O)c(Cl)c2)cc1Cl)[C@](O)(c1ccc2c(c1)N(C)C(=O)CO2)C(F)(F)F", "note": "(relative stereo) [Example 31, 3,3′-Dichloro-4′-[3,3,3-trifluoro-2-hydroxy-1-methyl-2-(4-methyl-3-oxo-3,4-dihydro-2H-benzo[1,4]oxazin-6-yl)-propyl]-biphenyl-4-carboxylic acid]", "values": [{"measurement": "Ki", "value": 3.1, "unit": "nM"}]}
{"compound": "C[C@@H](c1ccc(-c2ccc(F)c(C(=O)O)c2)cc1Cl)[C@](O)(c1ccc2c(c1)N(C)C(=O)CO2)C(F)(F)F", "note": "(relative stereo) [Example 32, 3′-Chloro-4-fluoro-4′-[3,3,3-trifluoro-2-hydroxy-1-methyl-2-(4-methyl-3-oxo-3,4-dihydro-2H-benzo[1,4]oxazin-6-yl)-propyl]-biphenyl-3-carboxylic acid]", "values": [{"measurement": "Ki", "value": 1.3, "unit": "nM"}]}
{"compound": "COC(=O)c1ccc(-c2ccc([C@H](C)[C@](O)(c3ccc4c(c3)N(C)C(=O)CO4)C(F)(F)F)c(Cl)c2)c(F)c1", "note": "(relative stereo) [Example 33, 3′-Chloro-2-fluoro-4′-[3,3,3-trifluoro-2-hydroxy-1-methyl-2-(4-methyl-3-oxo-3,4-dihydro-2H-benzo[1,4]oxazin-6-yl)-propyl]-biphenyl-4-carboxylic acid methyl ester]", "values": [{"measurement": "Ki", "value": 17.3, "unit": "nM"}]}
{"compound": "COC(=O)c1ccc(-c2ccc([C@H](C)[C@](O)(c3ccc4c(c3)N(C)C(=O)CO4)C(F)(F)F)c(Cl)c2)cc1OC", "note": "(relative stereo) [Example 35, 3′-Chloro-3-methoxy-4′-[3,3,3-trifluoro-2-hydroxy-1-methyl-2-(4-methyl-3-oxo-3,4-dihydro-2H-benzo[1,4]oxazin-6-yl)-propyl]-biphenyl-4-carboxylic acid methyl ester]", "values": [{"measurement": "Ki", "value": 2.6, "unit": "nM"}]}
{"compound": "COc1cc(-c2ccc([C@H](C)[C@](O)(c3ccc4c(c3)N(C)C(=O)CO4)C(F)(F)F)c(Cl)c2)ccc1C(=O)O", "note": "(relative stereo) [Example 36, 3′-Chloro-3-methoxy-4′-[3,3,3-trifluoro-2-hydroxy-1-methyl-2-(4-methyl-3-oxo-3,4-dihydro-2H-benzo[1,4]oxazin-6-yl)-propyl]-biphenyl-4-carboxylic acid]", "values": [{"measurement": "Ki", "value": 6.5, "unit": "nM"}]}
{"compound": "C[C@@H](c1ccc(-c2ccc(CC(=O)O)cc2)cc1Cl)[C@](O)(c1ccc2c(c1)N(C)C(=O)CO2)C(F)(F)F", "note": "(relative stereo) [Example 37, {3′-Chloro-4′-[3,3,3-trifluoro-2-hydroxy-1-methyl-2-(4-methyl-3-oxo-3,4-dihydro-2H-benzo[1,4]oxazin-6-yl)-propyl]-biphenyl-4-yl}-acetic acid]", "values": [{"measurement": "Ki", "value": 6.6, "unit": "nM"}]}
{"compound": "C[C@@H](c1ccc(-c2cc(C(=O)O)ccc2F)cc1Cl)[C@](O)(c1ccc2c(c1)N(C)C(=O)CO2)C(F)(F)F", "note": "(relative stereo) [Example 38, 3′-Chloro-6-fluoro-4′-[3,3,3-trifluoro-2-hydroxy-1-methyl-2-(4-methyl-3-oxo-3,4-dihydro-2H-benzo[1,4]oxazin-6-yl)-propyl]-biphenyl-3-carboxylic acid]", "values": [{"measurement": "Ki", "value": 1.8, "unit": "nM"}]}
{"compound": "CCOC(=O)c1cc(-c2ccc([C@H](C)[C@](O)(c3ccc4c(c3)N(C)C(=O)CO4)C(F)(F)F)c(Cl)c2)ccc1Cl", "note": "(relative stereo) [Example 39, 4,3′-Dichloro-4′-[3,3,3-trifluoro-2-hydroxy-1-methyl-2-(4-methyl-3-oxo-3,4-dihydro-2H-benzo[1,4]oxazin-6-yl)-propyl]-biphenyl-3-carboxylic acid ethyl ester]", "values": [{"measurement": "Ki", "value": 0.7, "unit": "nM"}]}
{"compound": "C[C@@H](c1ccc(-c2cccc(CC(=O)O)c2)cc1Cl)[C@](O)(c1ccc2c(c1)N(C)C(=O)CO2)C(F)(F)F", "note": "(relative stereo) [Example 41, {3′-Chloro-4′-[3,3,3-trifluoro-2-hydroxy-1-methyl-2-(4-methyl-3-oxo-3,4-dihydro-2H-benzo[1,4]oxazin-6-yl)-propyl]-biphenyl-3-yl}-acetic acid]", "values": [{"measurement": "Ki", "value": 1.5, "unit": "nM"}]}
{"compound": "C[C@@H](c1ccc(C(=O)O)cc1Cl)[C@](O)(c1ccc2c(c1)N(C)C(=O)CO2)C(F)(F)F", "note": "(relative stereo) [Example 43, 3-Chloro-4-[3,3,3-trifluoro-2-hydroxy-1-methyl-2-(4-methyl-3-oxo-3,4-dihydro-2H-benzo[1,4]oxazin-6-yl)-propyl]-benzoic acid]", "values": [{"measurement": "Ki", "value": 261, "unit": "nM"}]}
{"compound": "C[C@@H](c1ccc(Oc2ccc(CC(=O)O)cc2)cc1Cl)[C@](O)(c1ccc2c(c1)N(C)C(=O)CO2)C(F)(F)F", "note": "(relative stereo) [Example 44, (4-{3-Chloro-4-[3,3,3-trifluoro-2-hydroxy-1-methyl-2-(4-methyl-3-oxo-3,4-dihydro-2H-benzo[1,4]oxazin-6-yl)-propyl]-phenoxy}-phenyl)-acetic acid]", "values": [{"measurement": "Ki", "value": 3.2, "unit": "nM"}]}
{"compound": "COC(=O)c1ccc(-c2ccc([C@H](C)[C@](O)(c3cc(F)c4c(c3)N(C)C(=O)CO4)C(F)(F)F)c(Cl)c2)cc1F", "note": "(relative stereo) [Example 45, 3′-Chloro-3-fluoro-4′-[3,3,3-trifluoro-2-(8-fluoro-4-methyl-3-oxo-3,4-dihydro-2H-benzo[1,4]oxazin-6-yl)-2-hydroxy-1-methyl-propyl]-biphenyl-4-carboxylic acid methyl ester]", "values": [{"measurement": "Ki", "value": 2.1, "unit": "nM"}]}
{"compound": "C[C@@H](c1ccc(-c2ccc(C(=O)O)c(F)c2)cc1Cl)[C@](O)(c1cc(F)c2c(c1)N(C)C(=O)CO2)C(F)(F)F", "note": "(relative stereo) [Example 46, 3′-Chloro-3-fluoro-4′-[3,3,3-trifluoro-2-(8-fluoro-4-methyl-3-oxo-3,4-dihydro-2H-benzo[1,4]oxazin-6-yl)-2-hydroxy-1-methyl-propyl]-biphenyl-4-carboxylic acid]", "values": [{"measurement": "Ki", "value": 10.9, "unit": "nM"}]}
{"compound": "CCOC(=O)COc1cc(-c2ccc([C@H](C)[C@](O)(c3cc(F)c4c(c3)N(C)C(=O)CO4)C(F)(F)F)c(Cl)c2)ccc1F", "note": "(relative stereo) [Example 47, {3′-Chloro-4-fluoro-4′-[3,3,3-trifluoro-2-(8-fluoro-4-methyl-3-oxo-3,4-dihydro-2H-benzo[1,4]oxazin-6-yl)-2-hydroxy-1-methyl-propyl]-biphenyl-3-yloxy}-acetic acid ethyl ester]", "values": [{"measurement": "Ki", "value": 2, "unit": "nM"}]}
{"compound": "COC(=O)c1ccc(-c2ccc([C@@H](C)[C@@](O)(c3cccc4c3OCC(=O)N4C)C(F)(F)F)c(Cl)c2)cc1F", "note": "(relative stereo) [Example 53, 3′-Chloro-3-fluoro-4′-[3,3,3-trifluoro-2-hydroxy-1-methyl-2-(4-methyl-3-oxo-3,4-dihydro-2H-benzo[1,4]oxazin-8-yl)-propyl]-biphenyl-4-carboxylic acid methyl ester]", "values": [{"measurement": "Ki", "value": 66.1, "unit": "nM"}]}
{"compound": "CCN1C(=O)COc2ccc([C@](O)([C@H](C)c3ccc(-c4ccc(C(=O)O)c(F)c4)cc3Cl)C(F)(F)F)cc21", "note": "(relative stereo) [Example 65, 3′-Chloro-4′-[2-(4-ethyl-3-oxo-3,4-dihydro-2H-benzo[1,4]oxazin-6-yl)-3,3,3-trifluoro-2-hydroxy-1-methyl-propyl]-3-fluoro-biphenyl-4-carboxylic acid]", "values": [{"measurement": "Ki", "value": 128, "unit": "nM"}]}
